Data on 24 molecules can be found in patent publication US20060074243A1, “Hydroxamic acid and amide compounds and their use as protease inhibitors” (Pharmacia Corporation, priority 2002, published 2006).

Structures are written as SMILES.

Assay in all cases: In vitro MMP inhibition analysis (fluorogenic peptide substrate cleavage), Ki
What all share (assay type): biochemical
Common to all, as to conditions: Table 2

One assay has as its target T1, Human recombinant MMP-1 (Homo sapiens, UniProt P03956).
T1 construct: made in house; host or cells: MMP-1-transfected HT-1080 cells (spent media)
T1 sequence (P03956 100-469): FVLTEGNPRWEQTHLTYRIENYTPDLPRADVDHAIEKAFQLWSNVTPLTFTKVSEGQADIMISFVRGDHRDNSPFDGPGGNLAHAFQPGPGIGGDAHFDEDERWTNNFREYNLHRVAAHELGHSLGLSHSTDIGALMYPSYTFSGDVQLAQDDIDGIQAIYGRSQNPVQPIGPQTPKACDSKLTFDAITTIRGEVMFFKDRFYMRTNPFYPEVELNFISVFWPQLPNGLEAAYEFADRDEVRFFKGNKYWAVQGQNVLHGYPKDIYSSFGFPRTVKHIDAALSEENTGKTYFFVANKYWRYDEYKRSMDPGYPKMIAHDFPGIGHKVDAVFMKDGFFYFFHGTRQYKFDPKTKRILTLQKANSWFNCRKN
In a few lines: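 APMA- or trypsin-activated recombinant human MMP-1 (purified from transfected HT-1080 medium) with 4 μM MCA/Dpa quenched fluorogenic peptide, 1 h at room temperature in Tris/NaCl/CaCl2 buffer pH 7.5; fluorescence ex 330/em 420 nm. Ki from Morrison-equation fit of rates, substrate at or below Km, uncorrected.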

Another assay has as its target T2, Human recombinant MMP-9 (Homo sapiens, UniProt P14780).
T2 construct: made in house; host or cells: MMP-9-transfected HT1080 cells (spent media)
In a few lines: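 Recombinant MMP-9 purified from transfected HT1080 cell media, activated with APMA, trypsin or recombinant MMP-3, assayed in Tris buffer pH 7.5 with CaCl2 and 4 μM fluorogenic MCA/Dpa peptide, 1 h at room temperature (ex 330/em 420 nm). Ki from Morrison-equation regression of velocity; substrate at or below Km, uncorrected.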

A further assay deals with T3, Human recombinant MMP-13 (Homo sapiens, UniProt P45452).
T3 construct: made in house; host or cells: baculovirus / insect cells
In a few lines: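 Baculovirus-expressed full-length MMP-13 proenzyme was purified on heparin-agarose and zinc-chelate columns, then APMA-activated. It cleaved 4 μM MCA/Dpa fluorogenic peptide in 100 mM Tris-HCl, 100 mM NaCl, 10 mM CaCl2, 0.05% Brij-23, pH 7.5, for 1 h at room temperature (ex 330/em 420 nm). Ki came from Morrison-equation fits with substrate ≤Km, uncorrected.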

T2 sequence (P14780 107-707 limits assumed): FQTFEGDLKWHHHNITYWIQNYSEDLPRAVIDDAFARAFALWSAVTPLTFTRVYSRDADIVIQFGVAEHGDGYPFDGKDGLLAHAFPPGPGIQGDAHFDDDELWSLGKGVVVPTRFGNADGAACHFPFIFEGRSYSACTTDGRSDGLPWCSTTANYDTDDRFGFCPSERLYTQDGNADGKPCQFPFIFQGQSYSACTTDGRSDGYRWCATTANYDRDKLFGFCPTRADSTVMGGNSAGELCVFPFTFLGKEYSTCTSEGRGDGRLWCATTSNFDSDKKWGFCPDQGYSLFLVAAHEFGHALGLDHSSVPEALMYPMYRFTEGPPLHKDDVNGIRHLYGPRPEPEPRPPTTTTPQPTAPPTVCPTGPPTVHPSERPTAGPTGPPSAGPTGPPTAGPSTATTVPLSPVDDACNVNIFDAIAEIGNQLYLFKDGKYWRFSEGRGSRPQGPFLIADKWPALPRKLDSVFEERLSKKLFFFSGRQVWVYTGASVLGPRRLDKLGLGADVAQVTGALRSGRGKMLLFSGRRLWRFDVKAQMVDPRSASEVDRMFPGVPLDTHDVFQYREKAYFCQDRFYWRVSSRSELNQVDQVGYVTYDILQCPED

For `CCc1ccc(-c2ccc(S(=O)(=O)C3(C(=O)NO)CCOCC3)cc2)cc1` [Example 79], the inhibition constant (Ki) on Human recombinant MMP-1 came to 471 nM; at Human recombinant MMP-9, 0.635 nM; at Human recombinant MMP-13, 0.091 nM.

With `COCCC(C(=O)NO)S(=O)(=O)c1ccc(-c2ccc(CCC(F)(F)C(F)(F)F)cc2)cc1` (stereo not drawn) [Example 177], the figures for the inhibition constant (Ki) at Human recombinant MMP-1, on Human recombinant MMP-9 and at Human recombinant MMP-13 were > 10000 nM, 5.36 nM and 0.82 nM, respectively.

For the molecule `CC(C)N(C(=O)N1CCC(C(=O)NO)(S(=O)(=O)c2ccc(-c3ccc(CCC(F)(F)C(F)(F)F)cc3)cc2)CC1)C(C)C` [Example 174], the Ki is > 10000 nM on Human recombinant MMP-1, 3.77 nM at Human recombinant MMP-9 and 1.92 nM at Human recombinant MMP-13.

On to `O=C(NO)C1(S(=O)(=O)c2ccc(-c3cnc(OCC4CCC4)cn3)cc2)CCOCC1` [Example 178], for which the Ki was found to be 1100 nM on Human recombinant MMP-1, 0.14 nM on Human recombinant MMP-9 and 0.08 nM at Human recombinant MMP-13.

`O=C(NO)C1(S(=O)(=O)c2ccc(-c3cnc(CCC(F)(F)F)cn3)cc2)CCN(C2CC2)CC1` [Example 215]: the results for the inhibition constant (Ki) on Human recombinant MMP-1, at Human recombinant MMP-9 and at Human recombinant MMP-13 were > 10000 nM, 1 nM and 0.356 nM, respectively.

Turning to `O=C(NO)C1(S(=O)(=O)c2ccc(-c3ccc(C(F)(F)F)cn3)cc2)CCOCC1` [Example 82], the Ki on Human recombinant MMP-1 was 256 nM; at Human recombinant MMP-9, 1.99 nM; at Human recombinant MMP-13, 0.13 nM.

Turning to `O=C(NO)C1(S(=O)(=O)c2ccc(-c3cnc(-n4cccc4)cn3)cc2)CCOCC1` [Example 94], the values for the Ki at Human recombinant MMP-1, at Human recombinant MMP-9 and on Human recombinant MMP-13 were > 10000 nM, 3.4 nM and 0.428 nM, respectively.

For `CCCCNC(=O)c1ccc(-c2ccc(S(=O)(=O)C3(C(=O)NO)CCOCC3)cc2)nc1` [Example 203], the results for the Ki at Human recombinant MMP-1, on Human recombinant MMP-9 and at Human recombinant MMP-13 were 1140 nM, 61.4 nM and 0.375 nM, respectively.

For the molecule `CCC(C)COc1ccc(-c2ccc(S(=O)(=O)C3(C(=O)NO)CCOCC3)cc2)cc1C(F)(F)F` (stereo not drawn) [Example 92], the results for the Ki on Human recombinant MMP-1, at Human recombinant MMP-9 and on Human recombinant MMP-13 were > 10000 nM, 106 nM and 29.7 nM, respectively.

For `O=C(NO)C1(S(=O)(=O)c2ccc(-c3ccc(F)c(C(F)(F)F)c3)cc2)CCOCC1` [Example 84], the inhibition constant Ki is > 10000 nM at Human recombinant MMP-1, 97.1 nM on Human recombinant MMP-9 and 1.85 nM at Human recombinant MMP-13.

For `C#CCN1CCC(C(=O)NO)(S(=O)(=O)c2ccc(-c3ccc(CCC(F)(F)C(F)(F)F)cn3)cc2)CC1` [Example 199], the inhibitory constant (Ki) came out at 4510 nM at Human recombinant MMP-1, 0.147 nM at Human recombinant MMP-9 and 0.086 nM on Human recombinant MMP-13.

Consider `CCN1CCC(C(=O)NO)(S(=O)(=O)c2ccc(-c3cnc(CCC(F)(F)F)cn3)cc2)CC1` [Example 213], for which the results for the Ki on Human recombinant MMP-1, on Human recombinant MMP-9 and on Human recombinant MMP-13 were > 10000 nM, 4.8 nM and 1.41 nM, respectively.

Turning to `COCCO[C@H]1CC[C@](C(=O)NO)(S(=O)(=O)c2ccc(-c3cnc(CCC(F)(F)C(F)(F)F)cn3)cc2)CC1` [Example 187], the inhibitory constant (Ki) is 7020 nM on Human recombinant MMP-1, 0.16 nM at Human recombinant MMP-9 and 0.1 nM on Human recombinant MMP-13.

For `CCNc1cnc(-c2ccc(S(=O)(=O)C3(C(=O)NO)CCOCC3)cc2)cn1` [Example 93], the values for the inhibition constant (Ki) at Human recombinant MMP-1, at Human recombinant MMP-9 and at Human recombinant MMP-13 were > 10000 nM, 4.86 nM and 4.45 nM, respectively.

Consider `O=C(NO)C1(S(=O)(=O)c2ccc(-c3cnc(OCCC4CC4)cn3)cc2)CCOCC1` [Example 172], for which the results for the inhibition constant Ki at Human recombinant MMP-1, at Human recombinant MMP-9 and at Human recombinant MMP-13 were 1360 nM, 0.06 nM and 0.03 nM, respectively.

Consider `O=C(NCC1CC1)c1cnc(-c2ccc(S(=O)(=O)C3(C(=O)NO)CCOCC3)cc2)cn1` [Example 191], for which the Ki on Human recombinant MMP-1 stood at 200 nM; on Human recombinant MMP-9, 1.43 nM; on Human recombinant MMP-13 it was 0.24 nM.

For `Cc1nc(CCc2ccc(-c3ccc(S(=O)(=O)C4(C(=O)NO)CCOCC4)cc3)cc2)no1` [Example 219], the Ki at Human recombinant MMP-1 was 1700 nM; at Human recombinant MMP-9, 9.25 nM; at Human recombinant MMP-13 it was 0.111 nM.

Take `CCCCNc1cnc(-c2ccc(S(=O)(=O)C3(C(=O)NO)CCOCC3)cc2)cn1` [Example 83]: the figures for the Ki at Human recombinant MMP-1, on Human recombinant MMP-9 and at Human recombinant MMP-13 were > 10000 nM, 2.75 nM and 1.31 nM, respectively.

Take `O=C(NO)C1(S(=O)(=O)c2ccc(-c3ccc(OCC(F)(F)C(F)F)c(C(F)(F)F)c3)cc2)CCOCC1` [Example 85]: the Ki at Human recombinant MMP-1 was > 10000 nM; at Human recombinant MMP-9 it was 248 nM; at Human recombinant MMP-13, 14.7 nM.

As for `O=C(NO)C1(S(=O)(=O)c2ccc(-c3ccc(C(F)(F)F)cc3F)cc2)CCOCC1` [Example 96], the inhibitory constant (Ki) was 602 nM at Human recombinant MMP-1, 2.14 nM on Human recombinant MMP-9 and 0.416 nM at Human recombinant MMP-13.

On to `CN(C)C(=O)N1CCC(C(=O)NO)(S(=O)(=O)c2ccc(-c3ccc(CCC(F)(F)C(F)(F)F)cc3)cc2)CC1` [Example 173], for which the inhibitory constant (Ki) on Human recombinant MMP-1 turned out to be 4610 nM; on Human recombinant MMP-9, 0.67 nM; on Human recombinant MMP-13, 0.32 nM.

With `CC(C)NC(=O)c1ccc(-c2ccc(S(=O)(=O)C3(C(=O)NO)CCOCC3)cc2)nc1` [Example 204], the inhibition constant Ki at Human recombinant MMP-1 was determined as 751 nM; on Human recombinant MMP-9, 11.8 nM; at Human recombinant MMP-13, 0.751 nM.

Regarding `CCCc1ccc(-c2ccc(S(=O)(=O)C3(C(=O)NO)CCOCC3)cc2)cc1` [Example 87], the inhibition constant (Ki) at Human recombinant MMP-1 is 1110 nM; on Human recombinant MMP-9 it was 0.176 nM; on Human recombinant MMP-13, 0.138 nM.

Take `O=C(NO)C1(S(=O)(=O)c2ccc(-c3ccc(CCC(F)(F)C(F)(F)F)cc3)cc2)CCS(=O)(=O)CC1` [Example 167]: the Ki on Human recombinant MMP-1 was > 10000 nM; at Human recombinant MMP-9, 12.5 nM; on Human recombinant MMP-13, 0.74 nM.
